Results on two compounds are retold here after patent publication US20200383970A1, “Morphinan Derivatives with High Oral Bioavailability” (Alkermes Pharma Ireland Limited, priority 2009, published 2020).

Data set [1] in a line: Pharmacokinetic analysis following PO administration in monkey.
The conditions of data set [2]: dog, oral dose 1 (mg); Reuning et at. J Pharm Sci. 1979; cited from earlier work.
The nature of data set [3]: Pharmacokinetic analysis following PO administration in rat.
The nature of data set [4]: Pharmacokinetic analysis following PO administration in dog. In kind it is in vivo. As for the experimental part: Example 2: Pharmacokinetic analysis of Compound 1: The PK of Compound 1 and the reference compound Naltrexone was determined following IV (1 mg/kg) and PO (10 mg/kg or 1 mg/kg) administration. Concentrations of Compound 1 and naltrexone were determined by LC-MS/MS. The PK parameters were determined by noncompartmental analysis using WiNonlin (v5.1). FIGS. 2-4 show the PK profiles of naltrexone and Compound 1.

Read-outs that look alike come from different tables or passages of the source.

In data set [1] (monkey, in vivo, po, 10 mg/kg), `O=C1CC[C@@]2(O)[C@H]3Cc4ccc(O)c5c4[C@@]2(CCN3CC2CC2)[C@H]1O5` [Naltrexone, reference compound] yielded an AUC(0-inf) of 54 ng·h/mL, a Cmax of 13 ng/mL and a bioavailability of 13%. Moreover, in data set [2], the “AUC∞” value is 4.2 ng·h/mL, the “Bioavailability (F %)” value is 1.1% and the highest concentration (Cmax) was 2.7 ng/mL. Moreover, in data set [3] (rat, in vivo, po, 10 mg/kg), the total exposure AUC(0-inf) turned out to be 150 ng·h/mL, the Cmax is 61.6 ng/mL and the bioavailability turned out to be 3%.

`NC(=O)c1ccc2c(c1O)[C@]13CCN(CC4CC4)[C@H](C2)[C@]1(O)CCC(=O)C3` [Compound 1]: the AUC(0-inf) was determined as 4470 ng·h/mL in data set [1] (monkey, in vivo, po, 10 mg/kg); 491 ng·h/mL in data set [4] (dog, in vivo, po, 1 mg/kg); 1320 ng·h/mL in data set [3] (rat, in vivo, po, 10 mg/kg). Further, the Cmax in data set [1] (monkey, in vivo, po, 10 mg/kg) is 627 ng/mL; in data set [4] (in vivo, 1 mg/kg, dog, oral dose 1 (mg)), 104 ng/mL; in data set [3] (rat, in vivo, po, 10 mg/kg), 929 ng/mL. Besides, the bioavailability in data set [1] (monkey, in vivo, po, 10 mg/kg) was 68%; in data set [4] (in vivo, 1 mg/kg, dog, oral dose 1 (mg), read-out: Bioavailability (F %)), 66%; in data set [3] (rat, in vivo, po, 10 mg/kg), 15%. For the same compound, the half-life in data set [1] (monkey, in vivo, po, 10 mg/kg) was 5.4 h; in data set [4] (dog, in vivo, po, 1 mg/kg) it was 3.2 h; in data set [3] (rat, in vivo, po, 10 mg/kg) it was 1.2 h. The “improvement in oral bioavailability in comparison with naltrexone” value in data set [1] (monkeys, oral administration) is on record as “over 4 fold”; in data set [4] (dogs, oral administration) it was “over 50 fold”; in data set [3] (rats, oral administration), 4 fold.

By AUC(0-inf) is commonly meant the area under the concentration-time curve extrapolated to infinity. Usually Cmax stands for the maximum level reached in the sampled fluid or tissue. One may read the bioavailability as the share of a dose that reaches the circulation, judged against a reference dose that is usually intravenous. Usually half-life stands for how long it takes for the measured level to halve.
